# From patent US20210269440A1 (BETTA PHARMACEUTICALS CO., LTD, priority 2018, published 2021)
# Molecular target: T1, PD-1/PD-L1 protein/protein interaction (Homo sapiens, UniProt Q9NZQ7)
# T1 construct: Recombinant human PD-L1 protein (19-238) with a His-tag at the C-terminus; purchased AcroBiosystems PD1-H5229 (PD-L1); PD1-H5257 (PD-1)
# Experiment: PD-1/PD-L1 homogenous time-resolved fluorescence (HTRF) binding assay
# Conditions: not given
# Method: Resolved Fluorescence (HTRF) Binding Assay
# The assays were conducted in a standard black 384-well polystyrene plate with a final volume of […]. Inhibitors were first serially diluted in DMSO and then added to the plate wells before the addition of other reaction components. The final concentration of DMSO in the assay was 1%. The assays were carried out at 25° C. in the PBS buffer (pH 7.4) with 0.05% Tween-20 and 0.1% BSA. […] Plates were centrifuged and proteins were preincubated with inhibitors for 40 min. The incubation was followed by the addition of 10 μL of HTRF detection buffer supplemented with Europium cryptate-labeled anti-human IgG (PerkinElmer-AD0212) specific for Fc and anti-His antibody conjugated to SureLight®—Allophycocyanin (APC, PerkinElmer-AD0059H). After centrifugation, the plate was incubated at 25° C. for 60 min. […] Final concentrations in the assay were […] PD1, 10 nM PD-L1, 1 nM europium anti-human IgG and 20 nM anti-His-Allophycocyanin. IC50 determination was performed by fitting the curve of percent control activity versus the log of the inhibitor concentration using the GraphPad Prism 5.0 software.
# T1 sequence (Q9NZQ7 19-238): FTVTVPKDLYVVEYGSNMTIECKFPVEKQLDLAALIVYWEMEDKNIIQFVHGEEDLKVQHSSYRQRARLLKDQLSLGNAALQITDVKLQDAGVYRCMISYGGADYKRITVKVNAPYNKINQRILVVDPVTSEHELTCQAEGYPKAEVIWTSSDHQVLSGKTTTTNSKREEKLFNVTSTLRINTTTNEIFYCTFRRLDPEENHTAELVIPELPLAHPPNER
row,Structure (SMILES),IC50 [nM]
1,Cc1c(Nc2nccc3cc(CN4CCCCC4C(=O)O)cnc23)cccc1-c1cccc(OCCCN2CCOCC2)c1C (stereo not drawn) [Compound 5],3.3
2,"Cc1c(Nc2nccc3cc(CN(C)CC(=O)O)cnc23)cccc1-c1cccc(OCCCN2CCOCC2)c1C [Compound 11, N-((8-((2,2′-dimethyl-3′-(3-morpholinopropoxy)-[1,1′-biphenyl]-3-yl)amino)-1,7-naphthyridin-3-yl)methyl)-N-methylglycine]",2 to 10
3,"Cc1c(Nc2nccc3cc(CN4CC(F)(F)CC4C(=O)O)cnc23)cccc1-c1cccc(OCCCN2CCOCC2)c1C (stereo not drawn) [Compound 12, 1-((8-((2,2′-dimethyl-3′-(3-morpholinopropoxy)-[1,1′-biphenyl]-3-yl)amino)-1,7-naphthyridin-3-yl)methyl)-4,4-difluoropyrrolidine-2-carboxylic acid]",10 to 150
4,"Cc1c(Nc2nccc3cc(CNC(C)(CO)C(=O)O)cnc23)cccc1-c1cccc(OCCCN2CCOCC2)c1C (stereo not drawn) [Compound 13, 2-(((8-((2,2′-dimethyl-3′-(3-morpholinopropoxy)-[1,1′-biphenyl]-3-yl)amino)-1,7-naphthyridin-3-yl)methyl)amino)-3-hydroxy-2-methylpropanoic acid]",< 2
5,"CCN(CC(=O)O)Cc1cnc2c(Nc3cccc(-c4cccc(OCCCN5CCOCC5)c4C)c3C)nccc2c1 [Compound 14, N-((8-((2,2′-dimethyl-3′-(3-morpholinopropoxy)-[1,1′-biphenyl]-3-yl)amino)-1,7-naphthyridin-3-yl)methyl)-N-ethylglycine]",< 2
6,"Cc1c(Nc2nccc3cc(CN4CC(C(=O)O)C4)cnc23)cccc1-c1cccc(OCCCN2CCOCC2)c1C [Compound 15, 1-((8-((2,2′-dimethyl-3′-(3-morpholinopropoxy)-[1,1′-biphenyl]-3-yl)amino)-1,7-naphthyridin-3-yl)methyl)azetidine-3-carboxylic acid]",< 2
7,"Cc1c(Nc2nccc3cc(CN4CCCCC4C(=O)O)cnc23)cccc1-c1cccc(OCCCN2CCCCC2)c1C (stereo not drawn) [Compound 16, 1-((8-((2,2′-dimethyl-3′-(3-(piperidin-1-yl)propoxy)-[1,1′-biphenyl]-3-yl)amino)-1,7-naphthyridin-3-yl)methyl)piperidine-2-carboxylic acid]",< 2
8,"Cc1c(Nc2nccc3cc(CN4CCCCC4C(=O)O)cnc23)cccc1-c1cccc(OCCCN2CCN(C)CC2)c1C (stereo not drawn) [Compound 17, 1-((8-((2,2′-dimethyl-3′-(3-(4-methylpiperazin-1-yl)propoxy)-[1,1′-biphenyl]-3-yl)amino)-1,7-naphthyridin-3-yl)methyl)piperidine-2-carboxylic acid]",2 to 10
9,"Cc1c(Nc2nccc3cc(CN4CCCCC4C(=O)O)cnc23)cccc1-c1cccc(OCCCN2CCCC2)c1C (stereo not drawn) [Compound 18, 1-((8-((2,2′-dimethyl-3′-(3-(pyrrolidin-1-yl)propoxy)-[1,1′-biphenyl]-3-yl)amino)-1,7-naphthyridin-3-yl)methyl)piperidine-2-carboxylic acid]",< 2
10,"Cc1c(Nc2nccc3cc(CN4CCCCC4C(=O)O)cnc23)cccc1-c1cccc(OCCCN2CCC(O)C2)c1C (stereo not drawn) [Compound 19, 1-((8-((3′-(3-(3-hydroxypyrrolidin-1-yl)propoxy)-2,2′-dimethyl-[1,1′-biphenyl]-3-yl)amino)-1,7-naphthyridin-3-yl)methyl)piperidine-2-carboxylic acid]",< 2
11,"Cc1c(Nc2nccc3cc(CN4CCCCC4C(=O)O)cnc23)cccc1-c1cccc2c1CCN2CCCN1CCOCC1 (stereo not drawn) [Compound 20, 1-((8-((2-methyl-3-(1-(3-morpholinopropyl)indolin-4-yl)phenyl)amino)-1,7-naphthyridin-3-yl)methyl)piperidine-2-carboxylic acid]",> 150
12,"CCN(CC)CCCOc1cccc(-c2cccc(Nc3nccc4cc(CN5CCCCC5C(=O)O)cnc34)c2C)c1C (stereo not drawn) [Compound 21, 1-((8-((3′-(3-(diethylamino)propoxy)-2,2′-dimethyl-[1,1′-biphenyl]-3-yl)amino)-1,7-naphthyridin-3-yl)methyl)piperidine-2-carboxylic acid]",< 2
13,"Cc1c(Nc2nccc3cc(CN4CCCCC4C(=O)O)cnc23)cccc1-c1cccc(OCCCN(C)Cc2ccccc2)c1C (stereo not drawn) [Compound 22, 1-((8-((3′-(3-(benzyl(methyl)amino)propoxy)-2,2′-dimethyl-[1,1′-biphenyl]-3-yl)amino)-1,7-naphthyridin-3-yl)methyl)piperidine-2-carboxylic acid]",2 to 10
14,"CCNCCCOc1cccc(-c2cccc(Nc3nccc4cc(CN5CCCCC5C(=O)O)cnc34)c2C)c1C (stereo not drawn) [Compound 23, 1-((8-((3′-(3-(ethylamino)propoxy)-2,2′-dimethyl-[1,1′-biphenyl]-3-yl)amino)-1,7-naphthyridin-3-yl)methyl)piperidine-2-carboxylic acid]",< 2
15,"CC(=O)NCCCOc1cccc(-c2cccc(Nc3nccc4cc(CN5CCCCC5C(=O)O)cnc34)c2C)c1C (stereo not drawn) [Compound 24, 1-((8-((3′-(3-acetamidopropoxy)-2,2′-dimethyl-[1,1′-biphenyl]-3-yl)amino)-1,7-naphthyridin-3-yl)methyl)piperidine-2-carboxylic acid]",> 150
16,"Cc1c(Nc2nccc3cc(CN4CCCCC4C(=O)O)cnc23)cccc1-c1cccc(OCCCNC(N)=O)c1C (stereo not drawn) [Compound 25, 1-((8-((2,2′-dimethyl-3′-(3-ureidopropoxy)-[1,1′-biphenyl]-3-yl)amino)-1,7-naphthyridin-3-yl)methyl)piperidine-2-carboxylic acid]",> 150
17,"Cc1c(Nc2nccc3cc(CN4CCCCC4C(=O)O)cnc23)cccc1-c1cccc(OCCCNC(=N)N)c1C (stereo not drawn) [Compound 26, 1-((8-((3′-(3-guanidinopropoxy)-2,2′-dimethyl-[1,1′-biphenyl]-3-yl)amino)-1,7-naphthyridin-3-yl)methyl)piperidine-2-carboxylic acid]",> 150
18,"Cc1c(Nc2nccc3cc(CN4CCCCC4C(=O)O)cnc23)cccc1-c1cccc(OCCCNS(C)(=O)=O)c1C (stereo not drawn) [Compound 27, 1-((8-((2,2′-dimethyl-3′-(3-(methylsulfonamido)propoxy)-[1,1′-biphenyl]-3-yl)amino)-1,7-naphthyridin-3-yl)methyl)piperidine-2-carboxylic acid]",> 150

# Same assay, conditions: HTRF, recombinant human PD-1 (Fc tag) / PD-L1 (His-tag), 25° C., PBS pH 7.4; read-out: IC50
row,Structure (SMILES),IC50 [nM]
1,"Cc1c(Nc2nccc3cc(CNCC(=O)O)cnc23)cccc1-c1cccc(OCCCN2CCOCC2)c1C [Compound 1, ((8-((2,2′-dimethyl-3′-(3-morpholinopropoxy)-[1,1′-biphenyl]-3-yl)amino)-1,7-naphthyridin-3-yl)methyl)glycine]",0.43
2,"Cc1c(Nc2nccc3cc(CNCC(=O)O)cnc23)cccc1-c1ccccc1 [Compound 2, ((8-((2-methyl-[1,1′-biphenyl]-3-yl)amino)-1,7-naphthyridin-3-yl)methyl)glycine]",3
3,"Cc1c(Nc2nccc3cc(CN4CCC[C@H]4C(=O)O)cnc23)cccc1-c1cccc(OCCCN2CCOCC2)c1C [Compound 3, ((8-((2,2′-dimethyl-3′-(3-morpholinopropoxy)-[1,1′-biphenyl]-3-yl)amino)-1,7-naphthyridin-3-yl)methyl)proline]",2
4,"Cc1c(Nc2nccc3cc(CN4CCC[C@H]4C(=O)O)cnc23)cccc1-c1ccccc1 [Compound 4, ((8-((2-methyl-[1,1′-biphenyl]-3-yl)amino)-1,7-naphthyridin-3-yl)methyl)proline]",13
5,"Cc1c(Nc2nccc3cc(CN4CC(O)CC4C(=O)O)cnc23)cccc1-c1cccc(OCCCN2CCOCC2)c1C (stereo not drawn) [Compound 6, 1-((8-((2,2′-dimethyl-3′-(3-morpholinopropoxy)-[1,1′-biphenyl]-3-yl)amino)-1,7-naphthyridin-3-yl)methyl)-4-hydroxypyrrolidine-2-carboxylic acid]",2.8
6,"Cc1c(Nc2nccc3cc(CNCCC(=O)O)cnc23)cccc1-c1cccc(OCCCN2CCOCC2)c1C [Compound 7, 3-(((8-((2,2′-dimethyl-3′-(3-morpholinopropoxy)-[1,1′-biphenyl]-3-yl)amino)-1,7-naphthyridin-3-yl)methyl)amino)propanoic acid]",0.4
7,"Cc1c(Nc2nccc3cc(CNCCCC(=O)O)cnc23)cccc1-c1cccc(OCCCN2CCOCC2)c1C [Compound 8, 4-(((8-((2,2′-dimethyl-3′-(3-morpholinopropoxy)-[1,1′-biphenyl]-3-yl)amino)-1,7-naphthyridin-3-yl)methyl)amino)butanoic acid]",0.9
8,"Cc1c(Nc2nccc3cc(CN4CCC(C(=O)O)C4)cnc23)cccc1-c1cccc(OCCCN2CCOCC2)c1C (stereo not drawn) [Compound 9, 1-((8-((2,2′-dimethyl-3′-(3-morpholinopropoxy)-[1,1′-biphenyl]-3-yl)amino)-1,7-naphthyridin-3-yl)methyl)pyrrolidine-3-carboxylic acid]",1.2
9,"Cc1c(Nc2nccc3cc(CN[C@@H](CO)C(=O)O)cnc23)cccc1-c1cccc(OCCCN2CCOCC2)c1C [Compound 10, ((8-((2,2′-dimethyl-3′-(3-morpholinopropoxy)-[1,1′-biphenyl]-3-yl)amino)-1,7-naphthyridin-3-yl)methyl)serine]",0.5

# Same assay, conditions: R is the group comprising morpholine
row,Structure (SMILES),"biological activity (potency), as shown in Table 1"
1,"Cc1c(Nc2nccc3cc(CNCC(=O)O)cnc23)cccc1-c1cccc(OCCCN2CCOCC2)c1C [Compound 1, ((8-((2,2′-dimethyl-3′-(3-morpholinopropoxy)-[1,1′-biphenyl]-3-yl)amino)-1,7-naphthyridin-3-yl)methyl)glycine]",much more potent
2,"Cc1c(Nc2nccc3cc(CN4CCC[C@H]4C(=O)O)cnc23)cccc1-c1cccc(OCCCN2CCOCC2)c1C [Compound 3, ((8-((2,2′-dimethyl-3′-(3-morpholinopropoxy)-[1,1′-biphenyl]-3-yl)amino)-1,7-naphthyridin-3-yl)methyl)proline]",much more potent
3,Cc1c(Nc2nccc3cc(CN4CCCCC4C(=O)O)cnc23)cccc1-c1cccc(OCCCN2CCOCC2)c1C (stereo not drawn) [Compound 5],much more potent
